“And” between values parts separate entries of the source, which are not always exact repeats. Equal entries are not always repeated. Inconclusive results and toxic doses are left out. The calls were made as follows: active = survival T/C of 150% or more; inactive = T/C below 125% in these data.
Tested on: P388 leukemia ip, CD2F1 mice, survival T/C
Assay: NCI In Vivo Anticancer Drug Screen. Data for tumor model P388 Leukemia (intraperitoneal) in CD2F1 (CDF1) mice
Conditions: endpoint: median survival time, higher = longer survival
In short: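 Mice carrying the transplanted tumor received test compound or vehicle. Survival was recorded in each group, and the value is the treated-group measurement divided by that of the vehicle-treated control group.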

[1] = dose: 25.0 mg/kg/injection, schedule: Q01DX009 (ip), vehicle: saline with Tween-80
[2] = dose: 50.0 mg/kg/injection, schedule: Q01DX009 (ip), vehicle: saline with Tween-80
[3] = dose: 100.0 mg/kg/injection, schedule: Q01DX009 (ip), vehicle: saline with Tween-80
[4] = dose: 200.0 mg/kg/injection, schedule: Q01DX009 (ip), vehicle: saline with Tween-80
[5] = dose: 6.25 mg/kg/injection, schedule: Q01DX009 (ip), vehicle: saline
[6] = dose: 12.5 mg/kg/injection, schedule: Q01DX009 (ip), vehicle: saline with Tween-80
[7] = dose: 12.5 mg/kg/injection, schedule: Q01DX009 (ip), vehicle: saline
[8] = dose: 50.0 mg/kg/injection, schedule: Q01DX005 (ip), vehicle: saline with Tween-80
[9] = dose: 100.0 mg/kg/injection, schedule: Q01DX005 (ip), vehicle: saline with Tween-80
[10] = dose: 60.0 mg/kg/injection, schedule: Q01DX005 (ip), vehicle: saline with Tween-80
[11] = dose: 120.0 mg/kg/injection, schedule: Q01DX005 (ip), vehicle: saline with Tween-80
[12] = dose: 240.0 mg/kg/injection, schedule: Q01DX005 (ip), vehicle: saline with Tween-80
[13] = dose: 60.0 mg/kg/injection, schedule: Q01DX005 (ip), vehicle: Klucel (hydroxypropylcellulose) (HPC)
[14] = dose: 240.0 mg/kg/injection, schedule: Q01DX005 (ip), vehicle: Klucel (hydroxypropylcellulose) (HPC)
[15] = dose: 25.0 mg/kg/injection, schedule: Q01DX005 (ip), vehicle: saline with Tween-80

Measured: T/C

CC(=O)Nc1ccc2c(ccc3ccccc32)c1
inactive: [1] 107 % of control | [2] 113 % of control | [3] 118 % of control | [4] 115 % of control

CCOC(=O)/C=C(/C)SC1=CC(=O)c2ccccc2C1=O
inactive: dose: 1.56 mg/kg/injection, schedule: Q01DX009 (ip), vehicle: saline 91 % of control | [5] 98 % of control | [6] 119 % of control | [7] 100 % of control

O=C(Nc1ccc(C2=NCCN2)cc1)c1cc(C(=O)Nc2ccc(C3=NCCN3)cc2)cc([N+](=O)[O-])c1
inactive: dose: 167.0 mg/kg/injection, schedule: Q01DX010 (ip), vehicle: saline 104 % of control | dose: 250.0 mg/kg/injection, schedule: Q01DX010 (ip), vehicle: saline 100 % of control | dose: 375.0 mg/kg/injection, schedule: Q01DX010 (ip), vehicle: saline 100 % of control | dose: 512.0 mg/kg/injection, schedule: Q01DX010 (ip), vehicle: saline 95 % of control

CCCCCCCCCCCCCCCCOc1ccc(-c2cc(Cl)c3cc(S(=O)(=O)F)ccc3n2)cc1S(=O)(=O)F
inactive: [2] 86 % of control | dose: 50.0 mg/kg/injection, schedule: Q04DX003 (ip), vehicle: saline with Tween-80 90 % of control | [4] 90 % of control | dose: 200.0 mg/kg/injection, schedule: Q04DX003 (ip), vehicle: saline with Tween-80 90 % of control

CC(C)n1cnc2c(=S)nc[nH]c21
inactive: [1] 90 % of control | [2] 100 % of control | [3] 109 % of control

Cc1ccc(C2=C(Cl)C(=O)NC2=O)s1
inactive: dose: 3.13 mg/kg/injection, schedule: Q01DX001 (ip), vehicle: saline 100 % of control | dose: 6.25 mg/kg/injection, schedule: Q01DX001 (ip), vehicle: saline 99 % of control | dose: 12.5 mg/kg/injection, schedule: Q01DX001 (ip), vehicle: saline 95 % of control

CCCCCC(C)N(C)C(=O)CNCC(C)C (stereo not given)
inactive: [8] 100 % of control | [9] 108 % of control

Cc1cc([O-])c([I+]c2ccccc2)c(=O)[nH]1
inactive: dose: 50.0 mg/kg/injection, schedule: Q01DX005 (ip), vehicle: Klucel (hydroxypropylcellulose) (HPC) 103 % of control | dose: 100.0 mg/kg/injection, schedule: Q01DX005 (ip), vehicle: Klucel (hydroxypropylcellulose) (HPC) 110 % of control | dose: 200.0 mg/kg/injection, schedule: Q01DX005 (ip), vehicle: Klucel (hydroxypropylcellulose) (HPC) 102 % of control

O=C(/C=C/c1ccccc1)/C=C/c1ccccc1 (tested in a mixture with another compound)
inactive: [10] 98 % of control | [11] 91 % of control | [12] 91 % of control

CCN(CC)Cc1cc(C(CC(=O)c2ccccc2)S(=O)(=O)c2ccc(C)cc2)ccc1O (stereo not given)
inactive: [6] 88 % of control | [1] 89 % of control | dose: 50.0 mg/kg/injection, schedule: Q01DX009 (ip), vehicle: saline 93 % of control

Cn1cnc([N+](=O)[O-])c1N
inactive: [6] 106 % of control | [1] 119 % of control | [2] 103 % of control | [3] 106 % of control

CC(C)(C)OC(=O)C(CC(=O)O)=C(c1ccccc1)c1ccccc1
inactive: dose: 100.0 mg/kg/injection, schedule: Q01DX009 (ip), vehicle: Klucel (hydroxypropylcellulose) (HPC) 100 % of control | dose: 200.0 mg/kg/injection, schedule: Q01DX009 (ip), vehicle: Klucel (hydroxypropylcellulose) (HPC) 100 % of control | dose: 400.0 mg/kg/injection, schedule: Q01DX009 (ip), vehicle: Klucel (hydroxypropylcellulose) (HPC) 95 % of control

c1ccc2c(NC3=NCCO3)c3ccccc3nc2c1
inactive: dose: 3.12 mg/kg/injection, schedule: Q01DX009 (ip), vehicle: Klucel (hydroxypropylcellulose) (HPC) 95 % of control | dose: 6.25 mg/kg/injection, schedule: Q01DX009 (ip), vehicle: Klucel (hydroxypropylcellulose) (HPC) 95 % of control | dose: 12.5 mg/kg/injection, schedule: Q01DX009 (ip), vehicle: Klucel (hydroxypropylcellulose) (HPC) 103 % of control | dose: 25.0 mg/kg/injection, schedule: Q01DX009 (ip), vehicle: Klucel (hydroxypropylcellulose) (HPC) 111 % of control

Cc1ccc(S(=O)(=O)c2cncnc2N)cc1
inactive: dose: 100.0 mg/kg/injection, schedule: Q01DX001 (ip), vehicle: saline 101 % of control | dose: 200.0 mg/kg/injection, schedule: Q01DX001 (ip), vehicle: saline 110 % of control | dose: 400.0 mg/kg/injection, schedule: Q01DX001 (ip), vehicle: saline 110 % of control

CCOC(=O)c1ccc(NC(=O)Nc2ccccc2OC)cc1
inactive: dose: 3.75 mg/kg/injection, schedule: Q01DX005 (ip), vehicle: Klucel (hydroxypropylcellulose) (HPC) 94 % of control | dose: 7.5 mg/kg/injection, schedule: Q01DX005 (ip), vehicle: Klucel (hydroxypropylcellulose) (HPC) 97 % of control | dose: 15.0 mg/kg/injection, schedule: Q01DX005 (ip), vehicle: Klucel (hydroxypropylcellulose) (HPC) 92 % of control | [13] 88 % of control | [14] 86 % of control

C=C(C)C1CCC(C)CC(=O)C1 (stereo not given)
inactive: dose: 100.0 mg/kg/injection, schedule: Q04DX003 (ip), vehicle: saline + Tween-80 + alcohol 100 % of control | dose: 200.0 mg/kg/injection, schedule: Q04DX003 (ip), vehicle: saline + Tween-80 + alcohol 91 % of control | dose: 400.0 mg/kg/injection, schedule: Q04DX003 (ip), vehicle: saline + Tween-80 + alcohol 91 % of control

COC(=O)c1nc2c(c(=O)n(C)c(=O)n2C)n1C
inactive: [10] 94 % of control | [11] 96 % of control | [12] 89 % of control

CCC/C(=N\NC(=S)N1CC2CCC(CC2)C1)c1ccccn1
inactive: dose: 6.25 mg/kg/injection, schedule: Q01DX005 (ip), vehicle: saline with Tween-80 104 % of control and 110 % of control | dose: 12.5 mg/kg/injection, schedule: Q01DX005 (ip), vehicle: saline with Tween-80 113 % of control and 116 % of control | [15] 120 % of control

CCN(CC)CCOC(=O)Nc1cc(C(F)(F)F)ccc1Cl
inactive: [10] 111 % of control | [11] 109 % of control | [12] 90 % of control

COC1(OC)C2CCC1C(Cl)=C2Cl
inactive: dose: 3.13 mg/kg/injection, schedule: Q01DX009 (ip), vehicle: saline with Tween-80 93 % of control | dose: 3.13 mg/kg/injection, schedule: Q01DX009 (ip), vehicle: saline 108 % of control | dose: 6.25 mg/kg/injection, schedule: Q01DX009 (ip), vehicle: saline with Tween-80 108 % of control | [5] 107 % of control | [7] 124 % of control

O=C(Cc1nc(-c2ccc(Cl)cc2)no1)c1ccccc1
inactive: [2] 91 % of control | [3] 87 % of control

CC(=O)NCCSSCCCCS(=O)O
inactive: dose: 50.0 mg/kg/injection, schedule: Q01DX005 (ip), vehicle: saline 106 % of control and 115 % of control | dose: 100.0 mg/kg/injection, schedule: Q01DX005 (ip), vehicle: saline 118 % of control and 121 % of control | dose: 200.0 mg/kg/injection, schedule: Q01DX005 (ip), vehicle: saline 124 % of control

CCOC(=O)c1cc(Cl)ccc1OS(N)(=O)=O
inactive: [13] 105 % of control | dose: 120.0 mg/kg/injection, schedule: Q01DX005 (ip), vehicle: Klucel (hydroxypropylcellulose) (HPC) 100 % of control | [14] 99 % of control

CC(C)N1CSC(=S)N(Cc2ccccc2)C1
inactive: [1] 107 % of control | [2] 97 % of control and 98 % of control | [3] 93 % of control and 98 % of control | [4] 89 % of control

CC(O)(CSc1ccccc1)CSc1ccccc1 (tested in a mixture with another compound)
inactive: [15] 102 % of control | [8] 100 % of control | [9] 98 % of control | dose: 200.0 mg/kg/injection, schedule: Q01DX005 (ip), vehicle: saline with Tween-80 100 % of control

Reference: PubChem BioAssay AID330 (DTP/NCI, 2004)
